# Source: PMC10570366, “Molecular mechanism of decision-making in glycosaminoglycan biosynthesis” (Nature Communications, 2023)
# Tests used:
# Assay type in all cases: biochemical
# CHSY3/CHPF = biological target: T1, CHSY3/CHPF (Homo sapiens, UniProt Q70JA7); assay: HPLC and MS of glycopeptide product; conditions: acceptor TetraP-BETA; 5 mM Mn2+; pH 7.5; 30 °C
# T1 construct: soluble lumenal regions, His6 tags, obligate heterodimer co-expressed in Expi293F
# T1 sequence (Q70JA7 29-882 limits assumed): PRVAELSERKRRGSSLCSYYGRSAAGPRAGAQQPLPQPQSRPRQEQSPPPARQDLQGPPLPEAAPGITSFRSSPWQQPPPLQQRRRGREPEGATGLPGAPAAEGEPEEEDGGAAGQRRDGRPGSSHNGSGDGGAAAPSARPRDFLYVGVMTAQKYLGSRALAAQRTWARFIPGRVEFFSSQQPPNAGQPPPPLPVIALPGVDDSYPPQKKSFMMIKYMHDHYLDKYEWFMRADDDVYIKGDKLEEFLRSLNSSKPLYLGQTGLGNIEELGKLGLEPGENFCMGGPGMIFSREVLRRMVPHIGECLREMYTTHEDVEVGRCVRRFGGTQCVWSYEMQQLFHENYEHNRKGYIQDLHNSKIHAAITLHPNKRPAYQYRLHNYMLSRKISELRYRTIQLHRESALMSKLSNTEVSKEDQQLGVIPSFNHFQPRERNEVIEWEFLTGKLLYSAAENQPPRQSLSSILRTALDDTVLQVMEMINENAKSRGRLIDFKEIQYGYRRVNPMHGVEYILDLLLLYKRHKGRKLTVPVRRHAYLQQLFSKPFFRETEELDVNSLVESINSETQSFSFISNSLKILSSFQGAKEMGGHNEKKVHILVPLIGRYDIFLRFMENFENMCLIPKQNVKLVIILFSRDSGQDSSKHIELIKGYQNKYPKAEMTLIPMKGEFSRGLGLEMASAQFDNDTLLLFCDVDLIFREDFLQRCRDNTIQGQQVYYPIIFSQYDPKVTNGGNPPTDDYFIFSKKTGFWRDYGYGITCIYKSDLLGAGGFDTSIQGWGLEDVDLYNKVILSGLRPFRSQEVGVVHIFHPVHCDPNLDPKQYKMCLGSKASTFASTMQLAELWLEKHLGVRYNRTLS
# T1 sequence (Q8IZ52 35-775 partner): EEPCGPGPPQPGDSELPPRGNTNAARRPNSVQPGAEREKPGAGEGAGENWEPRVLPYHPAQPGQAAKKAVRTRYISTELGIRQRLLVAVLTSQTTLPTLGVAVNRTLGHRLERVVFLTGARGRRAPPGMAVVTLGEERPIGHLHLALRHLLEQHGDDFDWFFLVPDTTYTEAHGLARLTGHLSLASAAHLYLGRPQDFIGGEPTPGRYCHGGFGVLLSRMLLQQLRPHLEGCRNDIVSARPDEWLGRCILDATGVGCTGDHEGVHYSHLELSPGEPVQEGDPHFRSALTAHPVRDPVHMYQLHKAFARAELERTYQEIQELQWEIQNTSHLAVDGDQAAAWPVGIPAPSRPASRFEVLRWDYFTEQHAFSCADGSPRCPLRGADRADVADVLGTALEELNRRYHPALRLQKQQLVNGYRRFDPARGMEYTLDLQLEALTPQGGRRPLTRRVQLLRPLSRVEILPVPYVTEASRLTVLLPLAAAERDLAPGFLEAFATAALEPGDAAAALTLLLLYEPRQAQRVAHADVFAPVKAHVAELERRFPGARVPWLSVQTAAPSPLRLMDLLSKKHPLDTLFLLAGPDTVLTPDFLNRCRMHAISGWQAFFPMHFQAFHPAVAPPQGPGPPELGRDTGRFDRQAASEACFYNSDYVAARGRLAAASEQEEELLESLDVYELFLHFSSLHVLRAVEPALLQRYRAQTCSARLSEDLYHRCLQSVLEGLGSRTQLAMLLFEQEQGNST
# MBP-CSGALNACT1 = biological target: T2, MBP-CSGALNACT1 (Homo sapiens, UniProt Q8TDX6); assay: UDP-Glo; conditions: acceptor TetraP-peptides; 5 mM Mn2+; pH 7.5
# T2 sequence (Q8TDX6 36-532 limits assumed): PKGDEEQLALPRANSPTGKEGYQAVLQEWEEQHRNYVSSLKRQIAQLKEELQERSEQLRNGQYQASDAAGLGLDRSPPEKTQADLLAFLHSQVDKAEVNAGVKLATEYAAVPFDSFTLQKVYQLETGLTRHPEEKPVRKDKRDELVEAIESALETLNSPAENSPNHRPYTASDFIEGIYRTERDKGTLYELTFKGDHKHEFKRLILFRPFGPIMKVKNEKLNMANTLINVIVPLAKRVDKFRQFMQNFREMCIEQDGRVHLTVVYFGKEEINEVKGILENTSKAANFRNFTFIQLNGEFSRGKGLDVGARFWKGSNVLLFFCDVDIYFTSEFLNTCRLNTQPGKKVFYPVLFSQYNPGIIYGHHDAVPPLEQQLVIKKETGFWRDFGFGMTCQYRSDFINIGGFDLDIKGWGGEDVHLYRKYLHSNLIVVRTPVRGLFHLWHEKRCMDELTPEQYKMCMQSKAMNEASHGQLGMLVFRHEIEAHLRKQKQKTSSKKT
# EXT1/EXT2 = biological target: T3, EXT1/EXT2 (Homo sapiens, UniProt Q16394+Q93063); assay: HPLC and MS of glycopeptide product; conditions: acceptor GlcNAc-TetraP-BETA; Mn2+; pH 7.5
# T3 construct: soluble lumenal regions, FLAG-EXT1/His-EXT2 heterodimer co-expressed in Expi293F
# T3 sequence (Q16394 29-746 limits assumed): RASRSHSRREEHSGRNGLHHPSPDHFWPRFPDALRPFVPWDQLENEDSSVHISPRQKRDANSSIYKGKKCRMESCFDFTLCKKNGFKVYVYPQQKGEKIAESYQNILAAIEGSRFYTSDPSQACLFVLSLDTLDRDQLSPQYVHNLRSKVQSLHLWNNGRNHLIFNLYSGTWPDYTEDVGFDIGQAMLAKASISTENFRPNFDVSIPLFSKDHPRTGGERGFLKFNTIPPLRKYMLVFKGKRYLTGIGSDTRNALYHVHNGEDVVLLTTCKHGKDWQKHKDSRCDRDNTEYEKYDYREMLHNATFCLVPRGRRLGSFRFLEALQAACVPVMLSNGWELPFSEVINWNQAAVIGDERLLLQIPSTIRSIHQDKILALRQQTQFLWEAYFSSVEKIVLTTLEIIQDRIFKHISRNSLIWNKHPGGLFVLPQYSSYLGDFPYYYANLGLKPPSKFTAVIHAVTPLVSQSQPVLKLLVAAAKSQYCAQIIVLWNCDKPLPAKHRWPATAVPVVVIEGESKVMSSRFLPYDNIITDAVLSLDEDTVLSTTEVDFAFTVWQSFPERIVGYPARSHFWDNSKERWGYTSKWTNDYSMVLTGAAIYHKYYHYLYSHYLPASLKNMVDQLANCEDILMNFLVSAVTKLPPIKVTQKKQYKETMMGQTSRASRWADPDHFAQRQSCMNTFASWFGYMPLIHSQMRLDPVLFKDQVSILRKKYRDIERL
# T3 sequence (Q93063 47-718 limits assumed): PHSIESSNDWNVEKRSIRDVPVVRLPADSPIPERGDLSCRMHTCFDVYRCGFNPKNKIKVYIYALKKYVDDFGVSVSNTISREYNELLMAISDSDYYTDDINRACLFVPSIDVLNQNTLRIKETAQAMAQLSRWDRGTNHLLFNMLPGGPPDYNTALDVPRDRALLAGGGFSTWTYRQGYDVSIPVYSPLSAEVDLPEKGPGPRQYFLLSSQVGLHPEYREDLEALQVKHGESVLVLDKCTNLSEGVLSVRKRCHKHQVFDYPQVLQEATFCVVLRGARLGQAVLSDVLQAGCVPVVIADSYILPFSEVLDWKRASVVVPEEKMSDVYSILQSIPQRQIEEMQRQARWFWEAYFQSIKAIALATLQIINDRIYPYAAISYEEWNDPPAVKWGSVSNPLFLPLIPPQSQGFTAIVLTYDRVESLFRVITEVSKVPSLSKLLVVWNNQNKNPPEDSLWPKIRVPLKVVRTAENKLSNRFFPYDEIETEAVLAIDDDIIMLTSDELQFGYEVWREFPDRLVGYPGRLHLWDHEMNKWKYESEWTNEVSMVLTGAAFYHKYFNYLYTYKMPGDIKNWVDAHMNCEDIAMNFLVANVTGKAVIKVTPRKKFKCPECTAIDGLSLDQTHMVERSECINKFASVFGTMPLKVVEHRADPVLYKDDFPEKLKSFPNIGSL
# B3GAT3 = biological target: T4, B3GAT3 (Homo sapiens, UniProt O94766); assay: one-pot enzymatic synthesis, HPLC and MS; conditions: acceptor Gal-Gal-Xyl-BKN; 25 mM Mn2+; pH 7.5; 30 °C
# T4 sequence (O94766 29-335 limits assumed): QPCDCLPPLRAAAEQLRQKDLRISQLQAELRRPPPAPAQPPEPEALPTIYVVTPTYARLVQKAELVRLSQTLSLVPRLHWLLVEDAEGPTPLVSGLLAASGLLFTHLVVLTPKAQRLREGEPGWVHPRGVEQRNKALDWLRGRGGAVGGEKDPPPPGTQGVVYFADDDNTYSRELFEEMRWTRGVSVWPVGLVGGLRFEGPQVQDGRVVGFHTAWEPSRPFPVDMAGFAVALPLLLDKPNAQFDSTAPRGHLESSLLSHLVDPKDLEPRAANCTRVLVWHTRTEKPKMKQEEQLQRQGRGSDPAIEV
SMILES,HPLC and MS of glycopeptide product (CHSY3/CHPF),UDP-Glo (MBP-CSGALNACT1),HPLC and MS of glycopeptide product (EXT1/EXT2),"one-pot enzymatic synthesis, HPLC and MS (B3GAT3)"
CC(=O)N[C@H]1[C@@H](OP(=O)(O)OP(=O)(O)OC[C@H]2O[C@@H](n3ccc(=O)[nH]c3=O)[C@H](O)[C@@H]2O)O[C@H](CO)[C@H](O)[C@@H]1O [UDP-GalNAc],CHSY3/CHPF was able to transfer GalNAc onto TetraP-BETA,A similar behaviour was confirmed for CSGALNACT1,–,–
O=C(O)[C@H]1O[C@H](OP(=O)(O)OP(=O)(O)OC[C@H]2O[C@@H](n3ccc(=O)[nH]c3=O)[C@H](O)[C@@H]2O)[C@H](O)[C@@H](O)[C@@H]1O [UDP-GlcA],–,–,"both enzymes are able to catalyse the addition of a sixth sugar, forming GlcA-GlcNAc-TetraP-BETA","all four GTs but without FAM20B gave the unphosphorylated linker glycopeptide, GlcA-Gal-Gal-Xyl-BKN (Tetra-BKN)"
